Our source for the IC50 values is patent US6696467B2, “Quinoline derivatives” (Hoffmann-La Roche Inc., priority 2002, dated 2004).

In general, IC50 refers to the concentration that inhibits the measured activity by half.

Structures are written as SMILES.

For this assay, the target named is T1, recombinant mouse NPY5-receptor (mNPY5) (Mus musculus, UniProt O70342).
T1 construct: The full-length cDNA encoding the mouse NPY5 (mNPY5) receptor was amplified from mouse brain cDNA; expressed in transfected cells; membranes used
T1 sequence (O70342 1-466): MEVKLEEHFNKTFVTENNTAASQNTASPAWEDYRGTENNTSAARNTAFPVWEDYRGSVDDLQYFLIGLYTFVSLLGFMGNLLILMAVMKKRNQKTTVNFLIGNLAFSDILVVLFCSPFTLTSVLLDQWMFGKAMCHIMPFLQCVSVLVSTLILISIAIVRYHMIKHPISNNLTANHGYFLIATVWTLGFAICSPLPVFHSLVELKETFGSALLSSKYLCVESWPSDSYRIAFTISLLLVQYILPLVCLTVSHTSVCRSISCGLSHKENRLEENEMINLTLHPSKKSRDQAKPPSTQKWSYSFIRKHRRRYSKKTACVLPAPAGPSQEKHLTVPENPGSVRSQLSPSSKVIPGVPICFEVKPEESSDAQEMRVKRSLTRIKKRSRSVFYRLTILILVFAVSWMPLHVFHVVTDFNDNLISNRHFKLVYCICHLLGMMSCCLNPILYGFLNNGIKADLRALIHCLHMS
Nature of the assay: Radioligand competition binding. The note with it: displacement of 100 pM [125I]labelled peptide YY (PYY), membranes of HEK293 cells expressing mNPY5, 1 h at 22° C. From the text: The full-length cDNA encoding the mouse NPY5 (mNPY5) receptor was amplified from mouse brain cDNA using specific primers, designed based on the published sequence, and Pfu DNA-Polymerase (Stratagene). The amplification product was subcloned into the mammalian expression vector pcDNA3 using Eco RI and XhoI restriction sites. Positive clones were sequenced and one clone, encoding the published sequence (see Borowsky B., et al., Regul. Pept., 75-76:45-53 (1998)) was selected for generation of stable cell clones.
Human embryonic kidney 293 (HEK293) (ATCC No. CRL-1573) cells were transfected with 10 μg mNPY5 DNA using the lipofectamine reagent (Gibco BRL) according to the manufacturer's instruction. Two days after transfection, geneticin selection (1 mg/ml) was initiated and several stable clones were isolated. One clone was further used for pharmacological characterization.
Human embryonic kidney 293 cells (HEK293), expressing recombinant mouse NPY5-receptor (mNPY5) were broken by three freeze/thawing cycles in hypotonic Tris buffer (5 mM, pH 7.4, 1 mM MgCl2), homogenized and centrifuged at 72,000×g for 15 min. […] Protein was determined according to the method of Lowry using bovine serum albumine (BSA) as a standard. […]
A general note: In a radioligand displacement assay an active substance lowers the binding of a labelled ligand.

With `Cc1cc(N2CCCC2)c2ccc(NCC(C)C)cc2n1` [Example 2, isobutyl-(2-methyl-4-pyrrolidin-1-yl-quinolin-7-yl)-amine], the IC50 was determined as 0.7 nM.
Next, `Cc1cc(N2CCCC2)c2ccc(NC(=O)c3ccco3)cc2n1` [Example 54, furan-2-carboxylic acid (2-methyl-4-pyrrolidin-1-yl-quinolin-7-yl)-amide]: 0.3 nM.
